In patent US10125097B2, “1- [1-(benzoyl)-pyrrolidine-2-carbonyl]-pyrrolidine-2-carbonitrile derivatives” (UNIVERSITAT DE BARCELONA, priority 2012, dated 2018):

Key:
[1] = Parallel artificial membrane permeability assay (PAMPA); assay type: in vitro ADME; details: 200 μM initial concentration, pH 7.4, 4 hours, room temperature
Protocol: Parallel artificial membrane permeability assay (PAMPA) described in Kansy M et al., J. Med. Chem. 1998; 41(7):1007-10 was used to determine the capacity of compounds to cross the Blood-Brain Barrier (BBB) by passive diffusion (Di L et al., Eur. J. Med. Chem. 2003; 38(3):223-32). The effective permeability (Pe) of the compounds was measured at an initial concentration of 200 μM. The buffer solution was prepared from a commercial concentrated one following the manufacturer's instructions. pH was adjusted to 7.4 using a 0.5 M NaOH solution. A stock solution of new compound was prepared in DMSO and diluted with buffer solution to a final 200 μM concentration (0.5% DMSO content). The PAMPA sandwich was separated and each donor well was filled with 200 μL of the compound solution. The acceptor plate was placed into the donor plate, ensuring that the underside of the membrane was in contact with buffer. 4 μL of the mixture of phospholipids (20 mg/mL) in dodecane was added to the filter of each well, and 200 μL of buffer solution was added to the each acceptor well. The plate was covered and incubated at room temperature in a saturated humidity atmosphere for 4 hours under orbital agitation at 100 rpm. After 4 hours, the contents of the acceptor and donor compartments were analyzed by HPLC: 150 μL of each well from the donor plate and 150 μL of each well from the acceptor plate were transferred to HPLC vials, injecting each sample into a reverse-phase C18 column (150 mm×4.6 mm×5 μm, 100 Å) (100 μL/injection from the acceptor wells, 10 μL/injection from the donor wells and for t0 references). Transport was also confirmed by MALDI-TOF spectrometry.
The phospholipid mixture used was a porcine polar brain lipid extract, provided by Avanti polar lipids, with the following composition: 12.6% phosphatidylcholine (PC), 33.1% phosphatidylethanolamine (PE), 18.5% phosphatidylserine (PS), 4.1% phosphatidylinositol (PI), 0.8% phosphatidic acid and 30.9% of other compounds.
The effective permeability (Pe) after 4 hours was calculated using equation 2 and the percentage of transport was calculated using equation 3:
[formula] wherein: t is time (h) CA(t) is the compound concentration in the acceptor well at time t and CD(to) is the compound concentration in the donor well at to.

[2] = biological target: human prolyl oligopeptidase (Homo sapiens (Human), UniProt P48147); assay: POP inhibition assay (Z-G-P-AMC substrate, fluorimetric); assay type: biochemical; details: 100 mM Na/K phosphate buffer, pH 8.0, hPOP 20 to 60 nM, Z-G-P-AMC, 1 hour at 37° C.; read-out: IC50, inhibition of human prolyl oligopeptidase
Protocol: Expression and Purification of Prolyl Oligopeptidase (POP)
POP was obtained by expression in E. coli and affinity purification using a His tail fusion according to a literature procedure (Tarragó T et al., ChemBioChem 2006; 7:827-33) summarized below:
hPOP expression: E. coli BL21 competent cells were transformed with pETM10 hPOP. To induce expression, a pre-culture of LB medium (50 mL) containing kanamycin (50 μg/mL) was inoculated with one colony and was grown overnight at 37° C. Next day, two cultures of LB medium (500 mL) were inoculated with the overnight culture (10 mL). The inoculated cultures were grown at 37° C. and 220 rpm until the OD595 was 1.2 (2.5-3 hours). IPTG was then added (final concentration of 1 mM) and induction was performed overnight at 25° C. Cells were harvested (3500 g, 15 min, 4° C.) and the pellet was suspended in suspension buffer (50 mL) [Tris-HCl pH 8 (50 mM), NaCl (300 mM), imidazole (1 mM)] and sonicated with use of four cycles (each consisting of 15 sec of sonication and 15 sec of rest) at an intensity of 50% and 0.5 pulses, the sample being kept on ice. After sonication, the sample was centrifuged (40 000 g, 30 min, 4° C.) and the supernatant was used immediately for POP purification. An ÁKTA explorer FPLC system was used for purification. The supernatant was applied at a flow of 1 mL/min to a HiTrapQuelating column (5 mL) previously equilibrated with 5 column volumes of suspension buffer. The column was washed with suspension buffer until the absorbance at 280 nm returned to basal level. The column was then rinsed with 5 volumes of washing buffer (50 mM Tris-HCl, pH 8, 300 mM NaCl, 30 mM imidazole). The elution was performed with 4 volumes of elution buffer (50 mM Tris-HCl, pH 8, 300 mM NaCl, 500 mM imidazole). Fractions (4 mL) were collected during the entire elution. POP activity was checked in all fractions and positive ones were analyzed by SDS-PAGE and stained with Biosafe Comassie Stain G-250. Positive fractions were collected and desalted by use of a HiPrep 26/10 Desalting column with Tris-HCl (50 mM, pH 8) as buffer. Recombinant hPOP was quantified with the Bio-Rad Protein Assay with BSA as standard. Aliquots of the recombinant enzyme were prepared and immediately frozen with liquid nitrogen and stored at −80° C.
POP activity was determined following the method described by Toide et al (Toide K et al., J. Pharmacol. Exp. Ther. 1995; 274:1370-8), using Z-G-P-AMC (N-benzyloxycarbonyl-Gly-Pro-methylcoumarinyl-7-amide) as POP substrate. The reactions were performed in 96-well microtiter plates, which allowed simultaneous monitoring of multiple reactions. For each reaction, activity buffer (134 μl, 100 mM Na/K phosphate buffer, pH 8.0) was pre-incubated for 15 min at 37° C. with hPOP (ranging from 20 to 60 nM, depending on the activity of the hPOP batch) and the corresponding new compound solution (3 μl). A stock solution of new compound was prepared in DMSO (100 mM), and dilutions were prepared from this stock solution with DMSO. Alternatively, the reactions were performed using another activity buffer (141 μL, 100 mM Tris-acetate, […], 1 mM DTT, pH 7.3), pre-incubating with hPOP (10 nM) and the corresponding new compound solution (3 μl) (Conditions B).
After preincubation, Z-G-P-AMC (10 μl, 3 mM in 40% 1,4-dioxane) was added (3 μl, 1.5 mM in 40% of 1,4-dioxane, in Conditions B), and the reaction was incubated for 1 hour at 37° C. The reaction was stopped by adding sodium acetate (150 μl, 1 M, pH 4) and the formation of AMC was measured fluorimetrically. The excitation and emission wavelengths were 360/40 and 485/20 nm, respectively.
Several concentration points (ranging from 25 μM to 400 μM) were measured for each compound. The inhibitory activity on prolyl oligopeptidase was calculated according to eq 1. For each new compound, the fluorescence in the presence (a) and in the absence of hPOP (b) was measured. […]

Chain of human prolyl oligopeptidase (P48147 whole entry): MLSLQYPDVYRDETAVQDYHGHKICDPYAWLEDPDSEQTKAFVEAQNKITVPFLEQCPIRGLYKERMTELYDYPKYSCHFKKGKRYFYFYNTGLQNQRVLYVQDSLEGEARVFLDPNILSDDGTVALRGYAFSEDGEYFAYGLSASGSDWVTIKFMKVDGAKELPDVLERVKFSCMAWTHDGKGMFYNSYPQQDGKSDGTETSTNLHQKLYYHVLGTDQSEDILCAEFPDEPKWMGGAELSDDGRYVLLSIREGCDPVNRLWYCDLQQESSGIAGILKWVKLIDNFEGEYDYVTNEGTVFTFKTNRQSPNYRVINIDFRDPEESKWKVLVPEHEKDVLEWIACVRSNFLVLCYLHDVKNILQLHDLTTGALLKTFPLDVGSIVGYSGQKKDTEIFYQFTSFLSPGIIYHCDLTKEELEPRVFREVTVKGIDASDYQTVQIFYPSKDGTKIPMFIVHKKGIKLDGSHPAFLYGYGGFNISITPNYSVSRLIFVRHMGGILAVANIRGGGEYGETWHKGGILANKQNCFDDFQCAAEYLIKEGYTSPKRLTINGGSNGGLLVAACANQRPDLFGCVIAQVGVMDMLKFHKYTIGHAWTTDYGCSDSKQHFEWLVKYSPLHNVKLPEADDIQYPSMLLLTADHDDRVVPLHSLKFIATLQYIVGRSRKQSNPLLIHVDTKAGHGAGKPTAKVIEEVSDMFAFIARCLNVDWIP

For `COc1cc(C(=O)N2CC(F)(F)C[C@H]2C(=O)N2CCC[C@H]2C#N)cc(OC)c1OCc1ccccc1` [Example 4, (S)-1-((2S)-1-(4-(benzyloxy)-3,5-dimethoxybenzoyl)-4,4-difluoropyrrolidine-2-carbonyl)pyrrolidine-2-carbonitrile], the “% T (percentage of transport)” value [1] was 29.92%, the Papp at 4 h, 200 μM ([1]; PAMPA, read-out: Effective permeability Pe) was 221 nm/s and the IC50 [2] was 0.0487 µM.
